Data taken from patent US6500820B1, “Pharmaceutical composition for neurotrophic action” (priority 1998, dated 2002).

Assays:
[1] = system: CA1 neurons; experiment: 10-min forebrain ischemia (4-vessel occlusion) in rats, number of living CA1 pyramidal cells; assay type: in vivo, rat; conditions: male Wistar rats, 10-min 4 VO; 10 mg/kg orally 1 hr before and 4 hr after ischemia, then once daily for 6 days; counted 7 days after occlusion; P<0.05
Procedure: Male Wistar rats (Japan Clea Inc., Tokyo, Japan) aged 9 weeks were used. Rats were subjected to 10-min forebrain ischemia using a method reported by Pulsinelli W. A. and Brierley J. B., Stroke, Vol.10, pages 267-272, (1979). Compound A (10 mg/kg) was orally administered 1 hr before and 4 hr after the ischemic operation, and from the next day, it was administered once daily for 6 days.
Rats were sacrificed 7 days after occlusion for histopathological observation. Under deep pentobarbital anesthesia, rats were perfused transcardially with physiological saline solution. The brains were removed, soaked in FAM (formaline:acetic acid:methanol=1:1:8) solution, and embedded in paraffin. Serial coronal sections (6 μm) were cut at the level of the anterior hippocampus, approximately 3.8-4.3 mm posterior to the bregma and stained with hematoxilin and eosin. The number of living pyramidal cells per 250 μm length of CA1 sector were counted under a light microscope. The average of the right and left neuronal densities were defined as the neuronal density for each rat.
Group differences in the number of CA1 pyramidal cells were analyzed using Student t-tests.

[2] = system: choline acetyltransferase (ChAT); experiment: choline acetyltransferase (ChAT) activity in rat septal neurons cultured on rat hippocampal astrocyte feeder layer; assay type: cell-based; conditions: for ChAT activity: compound A 10-1000 nM
Procedure: This experiment was done by a method reported by Pharmacology of Neurotrophic Factors, Ann. Rev. Pharmacol. Toxicol., Vol.37, pages 239-267, (1997).
Astrocytes were obtained from the new-born Sprague-Dawley (SD) rat hippocampus by trypsin digestion and cultured in a serum-containing medium in a culture flask. The confluent astrocytes were harvested and seeded on 96 well plates at the density of 5×10^4 cells/well and served as the feeder layer for neurons after halting the overgrowth with 10 μM cytosine arabinoside. Neurons were taken from the septal area of E17 fetal SD rats by trypsin digestion and seeded on the astrocyte feeder layer at the density of 7.5×10^4 cells/well in a serum-free medium. On the next day, the compound was added to the culture with or without 3 ng/ml recombinant human NGF (rhNGF) and cultured further for 7 days. Then cells were lysed with 5 mM Tris-HCl (pH 7.4)/0.1% Triton X-100 and choline acetyltransferase (ChAT) activity was measured radiometrically by the method of Fonnum.

[3] = in the presence of 3 ng/ml rhNGF, cultured 7 days (FIG. 2)
[4] = without rhNGF, cultured 7 days, rat septal neurons on astrocyte feeder layer (FIG. 1)

SMILES | number of CA1 pyramidal cells (survival of CA1 neurons) versus vehicle-treated 4 VO control [1] | low concentration from which neurotrophic action is shown ([2]; ChAT activity in rat septal neurons, with or without rhNGF) [nm] | ChAT activity [2, 3] | ChAT activity [2, 4]
O=C(CCC1CCN(Cc2ccccc2)CC1)c1ccc2c(c1)NCCCC2.O=C(O)/C=C/C(=O)O [compound A, 3-[1-(phenylmethyl)-4-piperidinyl]-1-(2,3,4,5-tetrahydro-1H-1-benzazepin-8-yl)-1-propanone fumarate] | significantly greater than that of the vehicle-control | 10 | markedly elevated ChAT activity | apparently increased ChAT activity
Nc1c2c(nc3ccccc13)CCCC2 [tacrine, reference compound] |  |  | did not affect ChAT activity | did not affect ChAT activity
